# Experimental data taken from the Deep4Chem optical property database.
# Several values for one entry are separate records, joined by “and”; a condition that tells them apart may be missing. Equal entries are not always repeated.
# Assay: solvent given as SMILES
structure (smiles),measurement,setting,value
O=Cc1ccc(-c2ccc(O)c(-c3nc4ccccc4s3)c2)s1,emission maximum,in CCO,558 nm
same,emission maximum,in ClCCl,553 nm
same,emission maximum,in O,574 nm
CCCCN(CCCC)c1ccc(C#Cc2cc(C#Cc3ccc([N+](=O)[O-])cc3)c(C#Cc3ccc(N(CCCC)CCCC)cc3)cc2C#Cc2ccc([N+](=O)[O-])cc2)cc1,emission maximum,in ClCCl,557 nm
CC(C)Nc1cc2c(cc1F)c(=O)c1cc(F)c(NC(C)C)cc1n2C(C)C,emission maximum,in CCO,423 nm
O=c1c2ccccc2nc2ccc(-c3ccc(N(c4ccccc4)c4ccccc4)cc3)cn12,emission maximum,in ClCCl,521 nm
CC(C)(C)c1ccc(-c2c3cccc4c(-c5ccccc5)cc5c(-c6ccc(C(C)(C)C)cc6)c6cccc7c(-c8ccccc8)cc2c(c76)c5c43)cc1,emission maximum,in ClCCl,465 nm
CC1(C)c2ccccc2-c2cc3c(cc21)c1ccccc1n3-c1ccccc1,emission maximum,in ClCCl,391 nm
C(=C\c1ccncn1)/c1ccc(-c2ccco2)cc1,emission maximum,in ClCCl,401 nm
CC1=C(C#Cc2ccc(B(c3c(C)cc(C)cc3C)c3c(C)cc(C)cc3C)cc2)C(C)=[N+]2C1=C(c1ccccc1)c1c(C)c(C#Cc3ccc(B(c4c(C)cc(C)cc4C)c4c(C)cc(C)cc4C)cc3)c(C)n1[B-]2(F)F,emission maximum,in ClCCl,602 nm
Cc1ccc(-c2ccc(-c3ccc(-c4ccc(C)cc4)cc3/C(=C(/c3ccccc3)c3cc(-c4ccc(C)cc4)ccc3-c3ccc(-c4ccc(C)cc4)cc3)c3ccccc3)cc2)cc1,emission maximum,in C1CCOC1,498 nm
F[B-]1(F)n2c(-c3ccccc3)cc(-c3ccccc3)c2C(c2ccccc2)=C2C(c3ccccc3)=CC(c3ccccc3)=[N+]21,emission maximum,in C1CCOC1,597 nm
CC1=C(c2ccccc2)Oc2cc3nc4ccccc4nc3c3cccc1c23,emission maximum,in ClCCl,554 nm
COc1cccc2cc(-c3cc4cccc(OC)c4oc3=O)oc12,emission maximum,in CC#N,488 nm
same,emission maximum,in CCOC(C)=O,460 nm
same,emission maximum,in CS(C)=O,488 nm
same,emission maximum,in Cc1ccccc1,448 nm
same,emission maximum,in O,504 nm
C#CCNC1=C2C=CC=[N+]2[B-](F)(F)n2cccc21,emission maximum,in C1CCCCC1,482 nm and 486 nm
same,emission maximum,in CC(C)=O,466.5 nm
same,emission maximum,in CCCCO,463 nm
same,emission maximum,in CCCO,467 nm
same,emission maximum,in CCO,463 nm and 468 nm
same,emission maximum,in CCOC(C)=O,469.5 nm
same,emission maximum,in CN(C)C=O,458 nm
same,emission maximum,in CO,464.5 nm
same,emission maximum,in CS(C)=O,463 nm
same,emission maximum,in Cc1ccccc1,485 nm
same,emission maximum,in ClC(Cl)Cl,485 nm
same,emission maximum,in OCC(F)(F)F,480.5 nm
same,emission maximum,in c1ccccc1,485 nm
CN(C)c1ccc2c(-c3ccc(Br)cc3)c3ccc(=[N+](C)C)cc-3oc2c1,emission maximum,in CCO,579 nm
CC1=N/C(=C\c2ccccc2N)C(=O)N1C,emission maximum,in C1CCCCC1,451 nm
same,emission maximum,in C1CCOC1,513 nm
same,emission maximum,in CC#N,453 nm
same,emission maximum,in CO,454 nm
same,emission maximum,in CS(C)=O,530 nm
same,emission maximum,in ClCCl,452 nm
same,emission maximum,in O,452 nm
CCOC(=O)CCCn1c(C(=O)OC)c(C)c2c(=O)n3c(cc21)C(CC)=C(C)C3=O,emission maximum,in C1CCCCC1,434 nm
same,emission maximum,in CO,499 nm
same,emission maximum,in CS(C)=O,481 nm
same,emission maximum,in ClC(Cl)Cl,456 nm
same,emission maximum,in c1ccccc1,446 nm
Fc1ccccc1-c1c2cc(Cl)ccc2nc2cc3ccccc3cc12,emission maximum,in ClCCl,526 nm
CC1=CC(C)=[N+]2C1=C(C1=C3C(C)=CC(C)=[N+]3[B-](F)(F)n3c(C)cc(C)c31)c1c(C)cc(C)n1[B-]2(F)F,emission maximum,in ClC(Cl)Cl,588 nm
CCCCn1c2ccccc2c2ccc(C#Cc3ccc4ccc5cccc6ccc3c4c56)cc21,emission maximum,in ClCCl,411 nm
Cc1ccc(-c2nc(-c3ccc(C#N)cc3)[nH]c2-c2ccc(C)cc2)cc1,emission maximum,in CO,447 nm
CN(C)c1ccc(C2=Nc3ccc4c(C(F)(F)F)cc(C(F)(F)F)nc4[n+]3[B-](F)(F)O2)cc1,emission maximum,in ClCCl,642 nm
Cc1ccc(-n2c(-c3ccccc3[N-]S(=O)(=O)c3ccc(C)cc3)[nH+]c3c4ccccc4c4ccccc4c32)cc1,emission maximum,in Cc1ccccc1,506 nm
